Reference: patent publication US20240026461A1, “BCL10 MUTATIONS AS BIOMARKERS FOR TARGETED THERAPY IN B CELL LYMPHOMAS” (priority 2022, published 2024)

Tests used:
[1] = system: HBL1^WT; assay: Growth inhibition assay (CellTiter Glo), HBL1 cells expressing BCL10 WT; assay type: cell-based; conditions: Homo sapiens, 96 h, read-out: IC50, growth inhibition, BTK inhibitors
Method: (§1) DLBCL cell lines were cultured in exponential condition and the cell growth was determined by CellTiter Glo (Promega). 3000-5000 cells were seeded and cultured in each well of 384 well plate for 96 h and treated with compounds every 48 h. Luminescence was read at the endpoint with the Synergy NEO microplate reader (BioTek). The value of compound treated cells was normalized to their vehicle treated controls and then used to calculate IC50 in GraphPad Prism (RRID:SCR_002798).
(§2) Given the distinct functional profiles, CARD11 dependencies, and MALT1 activation effects of the BCL10 CARD and truncation mutants, the inventors designed experiments to evaluate whether, and to what extent, these mutant BCL10 proteins might confer BTK inhibitor resistance. Isogenic ABC-DLBCL cells expressing BCL10WT, BCL10^R58Q and BCL10^E140X proteins were treated with escalating doses of three chemically distinct covalent BTK inhibitors: ibrutinib, acalabrutinib, or zanubrutinib. The cellular proliferation rates of the treated cells were measured using an ATP fluorescence assay after 96 hours of drug exposure.
(§3) Isogenic BCL10^WT, BCL10^R58Q and BCL10^E140X ABC-DLBCLs were exposed to increasing concentrations of each of these compounds for 96 hours.

[2] = system: HBL1^R58Q; assay: Growth inhibition assay (CellTiter Glo), HBL1 cells expressing BCL10 R58Q; assay type: cell-based; conditions: Homo sapiens, 96 h, read-out: IC50, growth inhibition, BTK inhibitors
Method: as §1, §2, §3

[3] = system: HBL1^E140X; assay: Growth inhibition assay (CellTiter Glo), HBL1 cells expressing BCL10 E140X; assay type: cell-based; conditions: Homo sapiens, 96 h, read-out: IC50, growth inhibition, BTK inhibitors
Method: as §1, §2, §3

[4] = system: OCI-LY10^WT; assay: Growth inhibition assay (CellTiter Glo), OCI-Ly10 cells expressing BCL10 WT; assay type: cell-based; conditions: Homo sapiens, 96 h, read-out: IC50, growth inhibition, BTK inhibitors
Method: as §1, §2, §3

[5] = system: OCI-LY10^R58Q; assay: Growth inhibition assay (CellTiter Glo), OCI-Ly10 cells expressing BCL10 R58Q; assay type: cell-based; conditions: Homo sapiens, 96 h, read-out: IC50, growth inhibition, BTK inhibitors
Method: as §1, §2, §3

[6] = system: OCI-LY10^E140X; assay: Growth inhibition assay (CellTiter Glo), OCI-Ly10 cells expressing BCL10 E140X; assay type: cell-based; conditions: Homo sapiens, 96 h, read-out: IC50, growth inhibition, BTK inhibitors
Method: as §1, §2, §3

[7] = system: BCL10^WT expressing ABC-DLBCL xenografts; assay: Xenograft, ibrutinib treatment, BCL10^WT tumors; assay type: in vivo, mice; conditions: ibrutinib 37mpk, oral gavage, Q.D.
From the text: (§4) FIG. 6A-6K illustrate that BCL10 gain-of-function mutant lymphomas are resistant to upstream Bruton's tyrosine kinase (BTK) inhibitors. FIG. 6A illustrates growth inhibition assays of human diffuse large B-cell lymphoma (HBL1) cells and OCI-Ly10 lymphoma cells expressing wild type or mutant BCL10 protein in response to the BTK inhibitor Acalabrutinib. X axis, concentration of compound (M); Y axis, inhibition of cell growth normalized to vehicle treated cells. *p<0.05; **p<0.01; ****p<0.0001; ns, not significant. FIG. 6B illustrates growth inhibition assays of human diffuse large B-cell lymphoma (HBL1) cells and OCI-Ly10 lymphoma cells expressing wild type or mutant BCL10 protein in response to the BTK inhibitor Zanubrutinib. […] FIG. 6D illustrates luciferase activity measured in the MALT1 GloSensor reporter cell lines upon BTK inhibitor Acalabrutinib treatment. […] FIG. 6E illustrates luciferase activity measured in the MALT1 GloSensor reporter cell lines upon BTK inhibitor Zanubrutinib treatment. […] FIG. 6F illustrates luciferase activity measured in the MALT1 GloSensor reporter cell lines upon BTK inhibitor Ibrutinib treatment. […] AUC was calculated with Prism. FIG. 6J graphically illustrates tumor weight measured at the endpoint of tumors formed from xenografts of HBL1 cells expressing WT and mutant BCL10 (n=5-6/group). […]

[8] = system: BCL10^R58Q expressing ABC-DLBCL xenografts; assay: Xenograft, ibrutinib treatment, BCL10^R58Q tumors; assay type: in vivo, mice; conditions: ibrutinib 37mpk, oral gavage, Q.D.
From the text: as §4

[9] = system: BCL10^E140X expressing ABC-DLBCL xenografts; assay: Xenograft, ibrutinib treatment, BCL10^E140X tumors; assay type: in vivo, mice; conditions: ibrutinib 37mpk, oral gavage, Q.D.
From the text: as §4

[10] = target: T1, MALT1 (Ig1-Ig2) (human, UniProt Q9UDY8 125-309); assay: His pull-down after co-expression in E. coli, Coomassie-stained SDS-PAGE
T1 construct: domain: Ig1-Ig2; also called Ig1-Ig2 construct of MALT1; MALT1 (207-309)
T1 sequence (looked up): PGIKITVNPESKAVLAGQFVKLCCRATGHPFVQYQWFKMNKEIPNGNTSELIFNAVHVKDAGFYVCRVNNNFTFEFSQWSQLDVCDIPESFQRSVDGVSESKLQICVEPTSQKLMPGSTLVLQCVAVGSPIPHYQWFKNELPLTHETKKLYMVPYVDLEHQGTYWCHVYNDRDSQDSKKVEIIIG
Method: The inventors designed experiments to determine whether there were additional MALT1-binding sites on BCL10 at its largely unstructured C-terminus. The C-terminal region was divided into two halves and MALT1 pull-down studies were performed. […] Of note, unlike the interaction between BCL10 CARD and MALT1 death domain (DD) in the filamentous form, the interaction between BCL10 C-terminal region and MALT1 Ig1-Ig2 is monomeric as assessed by gel filtration chromatography of the complex.

[11] = target: T2, MALT1 (of the lymphoma cell lysates, detected with anti-MALT1) (UniProt Q9UDY8 2-824, limits assumed); assay: anti-Flag co-immunoprecipitation from Raji cells, anti-MALT1 blot
T2 construct: Cellular MALT1 co-precipitated or co-fractionated with Flag-BCL10; HBL1 is called a human lymphoma line
T2 sequence (looked up): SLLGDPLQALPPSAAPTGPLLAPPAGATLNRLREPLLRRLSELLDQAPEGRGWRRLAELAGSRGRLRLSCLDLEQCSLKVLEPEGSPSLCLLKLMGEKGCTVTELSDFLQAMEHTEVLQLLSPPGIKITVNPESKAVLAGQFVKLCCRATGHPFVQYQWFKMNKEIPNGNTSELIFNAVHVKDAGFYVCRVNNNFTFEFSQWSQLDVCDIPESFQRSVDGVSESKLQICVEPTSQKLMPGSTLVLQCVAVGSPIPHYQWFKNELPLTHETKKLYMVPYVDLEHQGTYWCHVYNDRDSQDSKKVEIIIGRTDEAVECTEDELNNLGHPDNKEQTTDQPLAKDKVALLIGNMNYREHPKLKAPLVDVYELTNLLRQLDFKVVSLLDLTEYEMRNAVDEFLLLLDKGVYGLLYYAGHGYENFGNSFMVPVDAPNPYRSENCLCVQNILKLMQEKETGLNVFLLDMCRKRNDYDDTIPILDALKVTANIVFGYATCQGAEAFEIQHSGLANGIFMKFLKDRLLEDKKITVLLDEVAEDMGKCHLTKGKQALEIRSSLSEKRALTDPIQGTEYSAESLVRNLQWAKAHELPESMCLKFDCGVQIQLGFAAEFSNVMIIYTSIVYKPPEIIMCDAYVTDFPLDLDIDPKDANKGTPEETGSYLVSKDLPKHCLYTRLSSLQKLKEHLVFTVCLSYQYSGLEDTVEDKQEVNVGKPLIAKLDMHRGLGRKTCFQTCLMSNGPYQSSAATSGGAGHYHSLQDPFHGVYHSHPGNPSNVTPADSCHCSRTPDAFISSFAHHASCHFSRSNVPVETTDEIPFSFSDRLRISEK
Method: Lymphoma cells (10⁸) were collected, washed with cold PBS and resuspended with lysis buffer (1% NP40, 10% glycerol, 150 mM NaCl, 20 mM Tris-HCL pH 7.5, and freshly added protease inhibitors). The lysates were centrifuged at 15,000 g, 4° C. for 15 min and the supernatant was then collected and incubated with 50 μL equilibrated anti-Flag magnetic beads (Sigma-Aldrich Cat #M8823, RRID:AB_2637089) at 4° C. for 3 h. The beads were washed 3 times with lysis buffer and followed by 3 times washing with the lysis buffer without NP40. SDS loading buffer without […] reagent was added and boiled at 95° C. for 5 min. The elution was added for […] (final 10%), and ready to run western blot after boiling at 95° C. for 5 min.
To investigate how the truncation mutants might affect CBM complex formation, Flag-tagged wild type and mutant forms of BCL10 were expressed in Raji cells, which lack constitutive B-cell receptor (BCR) signaling. Anti-Flag co-immunoprecipitations were performed on cell lysates. […] In contrast, there was less binding of MALT1 to BCL10^E140X, as well as to the similar BCL10^{K146Nfs*2} truncation mutant (FIG. 4A).

For `C=CC(=O)N1CCC[C@@H](n2nc(-c3ccc(Oc4ccccc4)cc3)c3c(N)ncnc32)C1` [Ibrutinib], the IC50 [1] was 4 nM, the IC50 [2] was 6.1 nM and the IC50 [3] was 11 nM. It also gave an IC50 [4] of 0.66 nM, an IC50 [5] of 2.2 nM and an IC50 [6] of 3.3 nM. For the same molecule, the “tumor growth of xenografts” value [7] was “suppressed growth”, the “tumor growth of xenografts” value ([7]; listed as ibrutinib) was “expected growth suppression” and the “tumor growth of xenografts” value [8] was “no significant anti-tumor effect”. For the same molecule, the “tumor growth of xenografts” value [9] was “no significant anti-tumor effect”.

B1: His-tagged BCL10 (116-164) (other)
chain: GLKCSSCEPFPDGATNNLSRSNSDESNFSEKLRASTVMYHPEGESSTTP
notes: Co-expressed with MALT1 Ig1-Ig2 in E. coli; not shown: His tag
B1: no binding [10].

B2: Flag-BCL10^E140X (other)
chain: MEPTAPSLTEEDLTEVKKDALENLRVYLCEKIIAERHFDHLRAKKILSREDTEEISCRTSSRKRAGKLLDYLQENPKGLDTLVESIRREKTQNFLIQKITDEVLKLRNIKLEHLKGLKCSSCEPFPDGATNNLSRSNSD
notes: Range 1-139 follows from the name E140X (stop codon at position 140); Expressed in Raji and HBL1 cells; also called Flag tagged E140X; truncating mutant at position 140; not shown: Flag tag
B2: binds [11].
